Test results taken from ChEMBL document CHEMBL1201862, “PubChem BioAssay data set” (2004).
The source made the active and inactive calls.

Experiments:
[1] = tested on: HEK293; assay: NOD2 signaling inhibitors in MDP-stimulated cells, cell-based, uHTS, luminescence (AID 2001); format: functional; details: Homo sapiens
[2] = tested on: HEK293; assay: cells; format: functional, cell-based; details: Homo sapiens
[3] = tested on: HEK293; assay: cells; format: functional, cell-based; details: Homo sapiens; remark: listed apart in the source
[4] = tested on: HEK293; assay: NOD1 signaling inhibitors, primary screen, cell-based, luminescence, uHTS (AID 1578); format: functional; details: Homo sapiens
[5] = tested on: Escherichia coli; assay: microbe, parasite or virus in culture
[6] = molecular target: T1, Coagulation factor XII (Homo sapiens, UniProt P00748); format: functional;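 also: activated factor XIIa alpha cleaving a fluorogenic AMC peptide substrate; inhibitor potency from loss of enzyme activity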
T1 sequence (P00748 whole entry): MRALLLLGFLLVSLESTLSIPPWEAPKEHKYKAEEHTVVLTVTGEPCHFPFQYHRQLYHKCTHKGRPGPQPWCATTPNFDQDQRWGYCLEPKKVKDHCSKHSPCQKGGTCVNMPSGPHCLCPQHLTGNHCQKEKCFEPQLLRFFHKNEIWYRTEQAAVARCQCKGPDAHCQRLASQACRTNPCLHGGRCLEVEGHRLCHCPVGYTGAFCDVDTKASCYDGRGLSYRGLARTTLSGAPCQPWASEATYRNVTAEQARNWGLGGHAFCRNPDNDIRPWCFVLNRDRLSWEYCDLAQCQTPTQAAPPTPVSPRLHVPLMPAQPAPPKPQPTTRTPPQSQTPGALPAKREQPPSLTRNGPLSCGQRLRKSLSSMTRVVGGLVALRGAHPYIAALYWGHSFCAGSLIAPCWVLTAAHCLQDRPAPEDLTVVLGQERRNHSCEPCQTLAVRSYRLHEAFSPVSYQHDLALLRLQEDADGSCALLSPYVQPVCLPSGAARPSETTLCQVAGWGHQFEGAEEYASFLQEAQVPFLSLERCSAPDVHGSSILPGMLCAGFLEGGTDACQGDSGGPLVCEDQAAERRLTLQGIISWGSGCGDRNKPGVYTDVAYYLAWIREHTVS

[7] = molecular target: T2, Alkaline phosphatase, tissue-nonspecific isozyme (Homo sapiens, UniProt P05186); assay: human TNAP enzyme inhibitors, SAR follow-up, biochemical, luminescent, dose response (AID 1056)
T2 sequence (P05186 whole entry): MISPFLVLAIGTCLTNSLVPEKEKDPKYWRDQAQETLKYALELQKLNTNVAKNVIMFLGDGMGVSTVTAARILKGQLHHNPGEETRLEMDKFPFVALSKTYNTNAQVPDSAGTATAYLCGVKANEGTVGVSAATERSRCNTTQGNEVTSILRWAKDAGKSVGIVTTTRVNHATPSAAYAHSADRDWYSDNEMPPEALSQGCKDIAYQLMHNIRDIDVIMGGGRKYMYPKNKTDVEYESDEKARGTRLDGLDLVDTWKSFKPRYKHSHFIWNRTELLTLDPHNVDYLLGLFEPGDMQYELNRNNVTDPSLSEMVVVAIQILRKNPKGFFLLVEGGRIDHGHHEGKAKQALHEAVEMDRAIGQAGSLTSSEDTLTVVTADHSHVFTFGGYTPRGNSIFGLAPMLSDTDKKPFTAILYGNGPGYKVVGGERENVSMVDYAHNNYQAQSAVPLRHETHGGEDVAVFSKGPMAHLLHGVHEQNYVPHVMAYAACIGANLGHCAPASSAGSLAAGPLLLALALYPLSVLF

[8] = molecular target: Glyceraldehyde-3-phosphate dehydrogenase (Homo sapiens, UniProt P04406)
Chain of Glyceraldehyde-3-phosphate dehydrogenase (P04406 whole entry): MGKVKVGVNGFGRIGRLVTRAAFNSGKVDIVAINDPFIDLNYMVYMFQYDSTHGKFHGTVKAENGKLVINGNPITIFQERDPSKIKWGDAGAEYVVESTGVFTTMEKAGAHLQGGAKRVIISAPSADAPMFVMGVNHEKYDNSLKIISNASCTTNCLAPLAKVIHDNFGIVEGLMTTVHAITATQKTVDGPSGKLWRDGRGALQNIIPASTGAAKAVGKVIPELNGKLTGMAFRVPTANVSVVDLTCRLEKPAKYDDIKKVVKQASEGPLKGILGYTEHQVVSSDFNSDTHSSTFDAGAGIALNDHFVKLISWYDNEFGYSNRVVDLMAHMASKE

[9] = molecular target: T3, Calpain-2 catalytic subunit (Sus scrofa, UniProt P43367); assay: pig calpain II inhibitor potency, dose response, biochemical, fluorogenic peptide substrate (AID 1420); format: functional
T3 sequence (P43367 whole entry): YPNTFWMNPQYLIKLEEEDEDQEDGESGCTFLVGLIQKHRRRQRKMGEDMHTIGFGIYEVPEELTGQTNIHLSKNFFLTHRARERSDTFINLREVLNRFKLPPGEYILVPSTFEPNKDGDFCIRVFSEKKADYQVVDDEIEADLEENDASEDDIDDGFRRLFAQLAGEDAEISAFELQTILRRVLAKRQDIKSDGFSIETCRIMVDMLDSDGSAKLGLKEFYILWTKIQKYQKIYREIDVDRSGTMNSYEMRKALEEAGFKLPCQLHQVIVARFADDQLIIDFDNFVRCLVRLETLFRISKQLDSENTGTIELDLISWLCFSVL

[10] = tested on: BJ; assay: cytotoxicity toward BJ-TERT fibroblasts, dose response, cell-based, RAS-independent, luminescence (AID 1933); format: functional; details: Homo sapiens
[11] = cytotoxicity toward DRD oncogenic fibroblasts, dose response, cell-based, non-viral oncogenic, luminescence (AID 1934); format: functional; details: Homo sapiens
[12] = inhibitors of SNCA 5'UTR-driven reporter translation, confirmation, H4 neuroglioma cells, luminescence (AID 1988); format: functional, cell-based
[13] = tested on: BJ; assay: cytotoxicity toward Ras-transformed BJeLR fibroblasts, dose response, cell-based, alamar blue fluorescence, cherrypicked samples (AID 2631); format: functional; details: Homo sapiens;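 also: confirmatory dose-response assay in RAS-dependent BJ fibroblasts engineered with TERT, LT and ST, with cytotoxicity read by fluorescence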
[14] = inhibitors of firefly luciferase expression or activity, dose response, H4 neuroglioma cells, luminescence (AID 1990); format: functional, cell-based
[15] = molecular target: Nonstructural protein 1 (Influenza A virus, UniProt Q194T2); format: functional, Influenza A virus (A/California/07/2009(H1N1))
Chain of Nonstructural protein 1 (Q194T2 whole entry): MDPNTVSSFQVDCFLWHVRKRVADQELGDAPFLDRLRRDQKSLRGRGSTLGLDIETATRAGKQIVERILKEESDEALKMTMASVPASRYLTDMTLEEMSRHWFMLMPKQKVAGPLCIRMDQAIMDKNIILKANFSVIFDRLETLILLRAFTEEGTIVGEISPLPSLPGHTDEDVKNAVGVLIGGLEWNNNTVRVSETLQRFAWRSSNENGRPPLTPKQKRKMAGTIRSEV

[16] = Luminescence Cell-Based Dose Response HTS to Identify Inhibitors of 5'UTR Stem-Loop Driven Prion Protein mRNA Translation in H4 Neuroglioblastoma Cells. [Related pubchem assays: 1827 (Project Summary), 1813 (Primary HTS)]; format: functional
[17] = microbe, parasite or virus in culture; format: functional; details: Mycobacterium tuberculosis
[18] = tested on: BJ; assay: cytotoxicity toward BJ-TERT-LT-ST fibroblasts, dose response, cell-based, RAS-independent, luminescence (AID 1935); format: functional; details: Homo sapiens;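 also: BJ fibroblasts immortalized with TERT plus LT and ST oncogenes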
[19] = tested on: BJ; assay: cells; format: functional, cell-based; details: Homo sapiens

COc1ccc(NC(=O)Nc2nnc(-c3ccncc3)s2)cc1
IC50 [1]: 6.01 µM (active)
IC50 [2]: 5.85 µM (active)
IC50 [3]: > 20 µM (inactive)
EC50 [4]: 5.39 µM (active)

COc1ccccc1NS(=O)(=O)c1cc(NC(C)=O)ccc1N1CCCCC1
AC50 [5]: 30.4 µM (active)

Cc1ccc(NC(=O)NCc2ccc3c(c2)OCO3)cc1
IC50 [6]: > 50 µM (inactive)

CCn1c2ccc(C)cc2c2nnc(SCCN3CCOCC3)nc21
AC50 [5]: 89.7 µM (active)

CN(C(=O)COC(=O)c1cc(-c2ccc(Br)cc2)[nH]n1)C1CCCCC1
IC50 [7]: > 100 µM (inactive)
IC50 [8]: > 100 µM (not active)

CCNC(=O)OCC12CC3CC(CC(C3)C1)C2
AC50 [5]: 33.5 µM (active)

CCOC(=O)c1nnc(-c2ccccc2)o1
IC50 [7]: > 100 µM (inactive)
IC50 [8]: > 100 µM (not active)

COc1ccc(OC)c(CNc2ccc([N+](=O)[O-])cc2C)c1
IC50 [9]: 8.98 µM (not active)
IC50 [6]: > 50 µM (inactive)

ClC1=C(Cl)C(Cl)=C(Cl)C1=C/C=C/c1ccccc1
EC50 [10]: 2.55 µM (inconclusive)
EC50 [11]: 2.45 µM (active)
EC50 [12]: 3.43 µM (active)
EC50 [13]: 1.25 µM (active)
EC50 [14]: 3.75 µM (inconclusive)
IC50 [15]: 33.6 µM (active)
EC50 [16]: 10.9 µM (active)
CC50 [17]: 7.07 µM (active)
EC50 [18]: 2.42 µM (inconclusive)
EC50 [19]: 2.98 µM (active)

O=C(N[C@H](C(=O)O)c1ccccc1)C1CCC(Cn2nnc3ccccc3c2=O)CC1 (stereo not given in full)
IC50 [6]: > 50 µM (inactive)
